From ChEMBL document CHEMBL1154355, “Identification of the bioactive constituent and its mechanisms of action in mediating the anti-inflammatory effects of black cohosh and related Cimicifuga species on human primary blood macrophages” (2009)
The source made the active and inactive calls. No cut-off for these calls is given here.

Assays:
PBMC [1] = assay: Antiinflammatory activity in human PBMC assessed as inhibition of 1 ng/ml LPS-induced TNFalpha release at 140 uM pretreated 24 hrs before inducer-challenge measured 24 hrs after LPS addition by ELISA; assay type: functional
[2] = biological target: MAP kinase p38 (Homo sapiens) (UniProt O15264+Q15759+Q16539+P53778); assay: Inhibition of LPS-induced p38 MAPK phosphorylation in human PBMC at 140 uM pretreated 24 hrs before inducer-challenge measured 15 mins after LPS addition by Western blot; assay type: protein assay
[3] = biological target: Mitogen-activated protein kinase; ERK1/ERK2 (Homo sapiens) (UniProt P27361+P28482); assay: Inhibition of LPS-induced ERK1/2 phosphorylation in human PBMC at 140 uM pretreated 24 hrs before inducer-challenge measured 15 mins after LPS addition by Western blot; assay type: protein assay
Chain of Mitogen-activated protein kinase; ERK1/ERK2 (Homo sapiens) (P27361 whole entry, looked up): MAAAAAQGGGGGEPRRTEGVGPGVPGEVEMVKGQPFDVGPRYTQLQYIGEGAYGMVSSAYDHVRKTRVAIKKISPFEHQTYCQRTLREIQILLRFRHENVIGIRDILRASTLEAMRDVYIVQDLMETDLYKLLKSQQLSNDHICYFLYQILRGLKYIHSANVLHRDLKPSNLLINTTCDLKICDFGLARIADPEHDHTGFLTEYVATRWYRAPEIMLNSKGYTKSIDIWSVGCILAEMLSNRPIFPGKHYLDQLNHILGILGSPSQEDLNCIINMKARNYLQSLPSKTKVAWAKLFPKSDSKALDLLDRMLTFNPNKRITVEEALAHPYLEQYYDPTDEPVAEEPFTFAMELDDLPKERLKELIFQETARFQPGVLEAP
Chain of Mitogen-activated protein kinase; ERK1/ERK2 (Homo sapiens) (P28482 whole entry, looked up): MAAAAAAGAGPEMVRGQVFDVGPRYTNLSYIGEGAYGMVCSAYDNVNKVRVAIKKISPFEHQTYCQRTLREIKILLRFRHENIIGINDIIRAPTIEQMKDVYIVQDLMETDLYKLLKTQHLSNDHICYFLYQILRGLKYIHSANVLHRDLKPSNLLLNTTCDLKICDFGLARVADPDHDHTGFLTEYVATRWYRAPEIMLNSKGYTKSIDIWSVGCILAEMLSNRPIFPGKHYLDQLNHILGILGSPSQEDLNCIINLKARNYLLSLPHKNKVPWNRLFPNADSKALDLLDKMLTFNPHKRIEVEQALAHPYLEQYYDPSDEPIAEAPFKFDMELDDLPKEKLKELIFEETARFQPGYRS

PBMC [4] = assay: Antiinflammatory activity in human PBMC assessed as inhibition of 10 ng/ml LPS-induced TNFalpha release at 140 uM pretreated 24 hrs before inducer-challenge measured 24 hrs after LPS addition by ELISA; assay type: functional
PBMC [5] = assay: Inhibition of LPS-induced NFkappaB p65 subunit translocation into nucleus in human PBMC at 140 uM pretreated 24 hrs before inducer-challenge measured 15 mins after LPS addition by Western blot; assay type: functional, cell-based
PBMC [6] = assay: Antiinflammatory activity in human PBMC assessed as inhibition of 10 ng/ml LPS-induced TNFalpha release at 1.3 uM pretreated 24 hrs before inducer-challenge measured 24 hrs after LPS addition by ELISA; assay type: functional
PBMC [7] = assay: Antiinflammatory activity in human PBMC assessed as inhibition of 10 ng/ml LPS-induced TNFalpha release at 5.1 uM pretreated 24 hrs before inducer-challenge measured 24 hrs after LPS addition by ELISA; assay type: functional

| inhibition [2] | inhibition [3] | Compound | inhibition (INH) (PBMC [1]) [%] | inhibition (INH) (PBMC [4]) [%] | inhibition (PBMC [5]) | inhibition (INH) (PBMC [6]) [%] | inhibition (INH) (PBMC [7]) [%] |
| --- | --- | --- | --- | --- | --- | --- | --- |
| inactive | Active | COc1ccc(/C=C/C(=O)OCC(=O)Cc2ccc(O)c(O)c2)cc1O [CIMIRACEMATE A] | 47 | 58 | Active |  |  |
|  |  | C[C@@H]1C[C@H]2[C@@H]3CCC4=CC(=O)C=C[C@]4(C)[C@@]3(F)[C@@H](O)C[C@]2(C)[C@@]1(O)C(=O)CO [DEXAMETHASONE] |  |  |  | 32 | 25 |
